# Experimental data reported in patent publication US7858611B2, “Neurogenesis by modulating angiotensin” (BrainCells Inc., priority 2006, dated 2010).
# Where two headings read alike, the source gives them in different places.
# Columns and labels:
# mGluR3 = mGluR3 (Homo sapiens, UniProt Q14832); details: read-out: IC50 against mGluR3; cited from earlier work
# mGluR2 = mGluR2 (Homo sapiens, UniProt Q14416); details: read-out: IC50 against mGluR2; cited from earlier work
# [1] = test system: Group I or Group III receptors; details: at sub-mM concentrations; cited from earlier work
# [2] = test system: KA, AMPA, and NMDA iGlu receptors; details: cited from earlier work
# mGlu7 and mGlu8 = details: at higher concentrations (e.g., above 1 μM); cited from earlier work
# human mGlu2 receptors = human mGlu2 receptors (Homo sapiens, UniProt Q14416); details: in vitro; low nanomolar range; read-out: EC50 against human mGlu2 receptors; cited from earlier work
# Chain of human mGlu2 receptors (Q14416 19-872): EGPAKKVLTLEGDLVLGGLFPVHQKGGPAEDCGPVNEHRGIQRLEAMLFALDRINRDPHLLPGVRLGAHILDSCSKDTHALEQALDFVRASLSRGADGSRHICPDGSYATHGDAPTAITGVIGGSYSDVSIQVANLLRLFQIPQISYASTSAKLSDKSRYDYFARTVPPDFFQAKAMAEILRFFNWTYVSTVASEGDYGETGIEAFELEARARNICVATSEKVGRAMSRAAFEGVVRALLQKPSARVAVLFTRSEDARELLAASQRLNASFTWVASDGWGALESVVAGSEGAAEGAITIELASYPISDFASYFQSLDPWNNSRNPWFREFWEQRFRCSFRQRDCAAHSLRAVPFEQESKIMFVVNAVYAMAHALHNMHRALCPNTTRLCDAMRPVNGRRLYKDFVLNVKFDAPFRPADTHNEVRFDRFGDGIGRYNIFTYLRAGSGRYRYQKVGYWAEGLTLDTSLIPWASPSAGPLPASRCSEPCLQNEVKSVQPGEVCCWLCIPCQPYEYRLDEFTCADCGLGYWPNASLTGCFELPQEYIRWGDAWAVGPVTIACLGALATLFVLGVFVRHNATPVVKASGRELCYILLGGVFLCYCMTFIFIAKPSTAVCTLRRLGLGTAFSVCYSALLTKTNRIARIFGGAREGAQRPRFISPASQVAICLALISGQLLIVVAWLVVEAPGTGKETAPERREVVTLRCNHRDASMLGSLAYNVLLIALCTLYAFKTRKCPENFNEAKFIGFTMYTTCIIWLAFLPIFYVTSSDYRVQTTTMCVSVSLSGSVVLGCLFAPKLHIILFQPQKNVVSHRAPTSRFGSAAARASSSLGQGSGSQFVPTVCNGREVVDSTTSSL
# human mGlu3 receptors = human mGlu3 receptors (Homo sapiens, UniProt Q14832); details: in vitro; low nanomolar range; read-out: EC50 against human mGlu3 receptors; cited from earlier work
# Chain of human mGlu3 receptors (Q14832 23-879): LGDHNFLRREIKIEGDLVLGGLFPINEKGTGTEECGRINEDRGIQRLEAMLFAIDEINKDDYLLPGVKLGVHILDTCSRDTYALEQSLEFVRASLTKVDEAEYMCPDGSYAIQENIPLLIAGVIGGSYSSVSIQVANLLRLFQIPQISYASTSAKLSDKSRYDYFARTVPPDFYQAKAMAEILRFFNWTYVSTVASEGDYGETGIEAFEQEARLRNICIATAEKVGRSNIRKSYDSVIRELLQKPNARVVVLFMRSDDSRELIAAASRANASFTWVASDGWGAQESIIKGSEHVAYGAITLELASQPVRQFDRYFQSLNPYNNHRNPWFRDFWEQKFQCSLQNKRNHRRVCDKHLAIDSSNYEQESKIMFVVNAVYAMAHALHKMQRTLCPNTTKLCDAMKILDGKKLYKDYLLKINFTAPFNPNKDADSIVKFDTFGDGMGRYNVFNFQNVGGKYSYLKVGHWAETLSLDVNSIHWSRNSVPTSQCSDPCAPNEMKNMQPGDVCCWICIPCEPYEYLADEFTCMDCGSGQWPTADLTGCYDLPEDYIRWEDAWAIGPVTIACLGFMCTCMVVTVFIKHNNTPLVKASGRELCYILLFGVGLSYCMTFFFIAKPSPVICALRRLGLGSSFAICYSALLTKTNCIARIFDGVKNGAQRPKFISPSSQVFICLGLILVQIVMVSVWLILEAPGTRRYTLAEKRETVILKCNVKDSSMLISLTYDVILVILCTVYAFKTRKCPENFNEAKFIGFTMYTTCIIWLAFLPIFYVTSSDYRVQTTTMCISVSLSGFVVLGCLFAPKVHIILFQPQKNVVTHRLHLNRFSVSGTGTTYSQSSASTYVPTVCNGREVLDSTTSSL
# [3] = test system: human neural stem cells (hNSCs); assay: Neuronal differentiation of human neural stem cells (TUJ-1 antibody staining); assay type: cell-based; details: for EC50: Homo sapiens, Neural stem cell, read-out: EC50 for neuronal differentiation; for effect on neuronal differentiation: dose response
# Source text: (§1) Mitogen-free test media with a positive control for neuronal differentiation was used along with basal media without growth factors as a negative control.
# as §1, §1, §1, §1
# (§2) Human neural stem cells (hNSCs) were isolated and grown in monolayer culture, plated, treated with varying concentrations of benazepril (test compound), and stained with TUJ-1 antibody, as described above. Mitogen-free test media with a positive control for neuronal differentiation was used along with basal media without growth factors as a negative control.
# as §2, with “trandolapril” for “benazepril”, “described in” for “described”
# as §2, with “candesartan” for “benazepril”, “described in” for “described”
# as §2, with “telmisartan” for “benazepril”, “described in” for “described”
# as §2, with “ibudilast and/or captopril” for “benazepril”, “compounds),” for “compound),”
# as §2, with “enoximone and/or captopril” for “benazepril”, “compounds),” for “compound),”
# as §2, with “ibudilast and/or candesartan” for “benazepril”, “compounds),” for “compound),”
# as §2, with “baclofen and/or captopril” for “benazepril”, “compounds),” for “compound),”
# Human neural stem cells (hNSCs) were isolated and grown in monolayer culture, plated, treated with varying concentrations of donepezil and/or captopril (test compounds), and stained with TUJ-1 antibody, as described above.
# [4] = agent alone, percentage of neuronal positive control, basal media values subtracted
# [5] = agent alone, FIG. 6-9, percentage of neuronal positive control, basal media values subtracted
# Chain of mGluR3 (Q14832 23-879): as above
# Chain of mGluR2 (Q14416 19-872): as the sequence (Q14416 19-872) above
Structure (SMILES),"EC50 [3, 4] [µM]",effect on neuronal differentiation ([3]; agent alone),also measured
"NC1(C(=O)O)CCc2cc(P(=O)(O)O)ccc21 (racemic) [APICA, (RS)-1-amino-5-phosphonoindan-1-carboxylic acid]",,,IC50 (mGluR3): ~30 µM; IC50 (mGluR2): ~30 µM; activity against Group I or Group III receptors [1]: no appreciable activity
"N[C@](CC1c2ccccc2Oc2ccccc21)(C(=O)O)[C@H]1C[C@@H]1C(=O)O [LY341495, (2S)-2-amino-2-(1S,2S-2-carboxycycloprop-1-yl)-3-(xanth-9-yl)propanoic acid]",,,"activity against KA, AMPA, and NMDA iGlu receptors [2]: substantially inactive; activity against mGlu7 and mGlu8 (mGlu7 and mGlu8): antagonist activity"
"N[C@@]1(C(=O)O)CO[C@H]2[C@H](C(=O)O)[C@H]21 [LY379268, (−)-2-oxa-4-aminobicyclohexane-4,6-dicarboxylic acid]",,,EC50 (human mGlu2 receptors): < 0.01 µM; EC50 (human mGlu3 receptors): < 0.01 µM
"CCOC(=O)[C@H](CCc1ccccc1)N[C@H]1CCc2ccccc2N(CC(=O)O)C1=O [benazepril, 2-[4-(1-ethoxycarbonyl-3-phenyl-propyl)amino-5-oxo-6-azabicyclo[5.4.0]undeca-7,9,11-trien-6-yl]acetic acid]",,promoted neuronal differentiation,"EC50 [3, 5]: 3.3 µM"
COc1cc2c(cc1OC)C(=O)C(CC1CCN(Cc3ccccc3)CC1)C2 (stereo not shown) [donepezil],,,EC50 [3]: 2 µM
CSc1ccc(C(=O)c2[nH]c(=O)[nH]c2C)cc1 [enoximone],6.8,,
CC(C)C(=O)c1c(C(C)C)nn2ccccc12 [ibudilast],6.2,,
COc1ccc(C2CNC(=O)C2)cc1OC1CCCC1 (stereo not shown) [rolipram],2.3,,
"CCCc1nc2c(C)cc(-c3nc4ccccc4n3C)cc2n1Cc1ccc(-c2ccccc2C(=O)O)cc1 [telmisartan, 2-[4-[[4-methyl-6-(1-methylbenzoimidazol-2-yl)-2-propyl-benzoimidazol-1-yl]methyl]phenyl]benzoic acid]",0.06,promoted neuronal differentiation,"EC50 [3, 5]: ~0.03 µM"
Cn1c(=O)c2[nH]cnc2n(C)c1=O [theophylline],16.4,,
"CCOC(=O)C(CCc1ccccc1)NC(C)C(=O)N1C(C(=O)O)CC2CCCCC21 (stereo not shown) [trandolapril, 1-[2-[(1-ethoxycarbonyl-3-phenyl-propyl)amino]propanoyl]-2,3,3a,4,5,6,7,7a-octahydroindole-2-carboxylic acid]",,promoted neuronal differentiation,"EC50 [3, 5]: ~35 µM"
CCCc1nc(C)c2c(=O)[nH]c(-c3cc(S(=O)(=O)N4CCN(CC)CC4)ccc3OCC)nn12 [vardenafil],8.6,,

# Continued, in another order:
"EC50 [3, 4] [µM]",Structure (SMILES),effect on neuronal differentiation ([3]; agent alone),also measured
13,"CC(=O)SC[C@@H](C)C(=O)N1CCC[C@H]1C(=O)N[C@@H](Cc1ccccc1)C(=O)O [alacepril, 1-(D-3-acetylthio-2-methylpropanoyl)-L-prolyl-L-phenylalanine]",promoted neuronal differentiation,
3.2,NCC(CC(=O)O)c1ccc(Cl)cc1 (stereo not shown) [baclofen],,
2.2,"CCOc1nc2cccc(C(=O)O)c2n1Cc1ccc(-c2ccccc2-c2nnn[nH]2)cc1 [candesartan, 2-ethoxy-3-[[4-[2-(2H-tetrazol-5-yl)phenyl]phenyl]methyl]-3H-benzoimidazole-4-carboxylic acid]",promoted neuronal differentiation,"EC50 [3, 5]: ~0.84 µM"
3.8,"C[C@H](CS)C(=O)N1CCC[C@H]1C(=O)O [captopril, 1-[(2S)-3-mercapto-2-methylpropionyl]-1-proline]",promoted neuronal differentiation,
0.5,"CCOC(=O)[C@H](CCc1ccccc1)N[C@@H](C)C(=O)N1CCC[C@H]1C(=O)O [enalapril, (S)-1-[N-[1-(ethoxycarbonyl)-3-phenylpropyl]-1-alanyl]-1-proline]",promoted neuronal differentiation,
9.1,"NCCCC[C@H](N[C@@H](CCc1ccccc1)C(=O)O)C(=O)N1CCC[C@H]1C(=O)O [lisinopril, (S)-1-(N(sup 2)-(1-carboxy-3-phenylpropyl)-L-lysyl)-L-proline]",promoted neuronal differentiation,
0.9,"CCCCc1nc(Cl)c(CO)n1Cc1ccc(-c2ccccc2-c2nnn[nH]2)cc1 [losartan, [2-butyl-5-chloro-3-[[4-[2-(2H-tetrazol-5-yl)phenyl]phenyl]methyl]-3H-imidazol-4-yl]methanol]",promoted neuronal differentiation,
